From patent EP0081425B1, “Pharmaceutical compositions having normolipemic properties and containing compounds of the n-substituted benzenesulfonamide type” (priority 1981, dated 1983)
Where two headings read alike, the source gives them in different places.

Test system: hyperlipidémie provoquée par l'administration de TRITON®
Test: Triton test: hyperlipidemia induced by i.v. TRITON W.R. in fasted rats
Assay type: in vivo, rats WISTAR mâles
Details: for Cholestérol estérifié Score (par rapport au clofibrate compté pour 1) / Cholestérol total Score (par rapport au clofibrate compté pour 1) / Lipides totaux Score (par rapport au clofibrate compté pour 1) / Triglycérides Score (par rapport au clofibrate compté pour 1): ratio to clofibrate of the same series; for inhibition in vivo at 250 mg/kg: Rattus norvegicus, po, blood assayed 6 h and/or 24 h later
From the text: Dans une première série d'expériences, des produits ont été testés sur une hyperlipidémie provoquée par l'administration de TRITON® selon le protocole suivant.
Les essais ont été réalisés sur des groupes de cinq rats WISTAR mâles dont le poids varie de 150 à 175 g.
Pour effectuer ces essais, on provoque une hyperlipidémie chez les animaux, au moyen du produit commercialisé par la Société ROHM and HAAS sous le nom de TRITON® W. R.
On observe, sur cette hyperlipidémie, les effets obtenus par administration des substances actives selon l'invention.
Les essais sont réalisés comme suit : • les rats sont mis à jeûner pendant 18 heures, puis on administre le TRITON® W.R. par voie intraveineuse en solution aqueuse à 10 % à raison de 200 mg/kg ;
6 heures et/ou 24 heures plus tard, on effectue les dosages sur le sang de façon traditionnelle.
Dans la première colonne, on a indiqué le numéro du composé testé.
Dans la deuxième colonne, on a indiqué le nombre d'animaux qui ont été soumis au test.
Dans les quatre dernières colonnes, on a indiqué les résultats relatifs respectivement : • aux lipides totaux, • aux triglycérides, • au cholestérol total, • au cholestérol estérifié.
Dans chacune de ces colonnes, on indique : • a) le pourcentage de diminution par rapport au témoin TRITON; • b) le score par rapport au clofibrate de référence, c'est-à-dire le rapport de l'intensité de l'activité du produit testé vis-à-vis de celle,de l'activité au clofibrate comptée pour 1.

[1] = 250 mg/kg oral, given with TRITON W.R. 200 mg/kg i.v., read-out: Cholestérol estérifié % (pourcentage de diminution par rapport au témoin TRITON)
[2] = 250 mg/kg oral, given with TRITON W.R. 200 mg/kg i.v., read-out: Cholestérol total % (pourcentage de diminution par rapport au témoin TRITON)
[3] = 250 mg/kg oral, given with TRITON W.R. 200 mg/kg i.v., read-out: Triglycérides % (pourcentage de diminution par rapport au témoin TRITON)
[4] = read-out: Lipides totaux % (pourcentage de diminution par rapport au témoin TRITON), 250 mg/kg oral, given with TRITON W.R. 200 mg/kg i.v.

SMILES	Cholestérol estérifié Score (par rapport au clofibrate compté pour 1) (250 mg/kg oral)	Cholestérol total Score (par rapport au clofibrate compté pour 1) (250 mg/kg oral)	Lipides totaux Score (par rapport au clofibrate compté pour 1) (250 mg/kg oral)	Triglycérides Score (par rapport au clofibrate compté pour 1) (250 mg/kg oral)	inhibition in vivo at 250 mg/kg [1] [%]	inhibition in vivo at 250 mg/kg [2] [%]	inhibition in vivo at 250 mg/kg [3] [%]	inhibition in vivo at 250 mg/kg [4] [%]
CCC(CO)NS(=O)(=O)c1cc(Br)ccc1OC (stereo not drawn) [Composé n° 645]	0,50	1,54	3,62	1,21	19.4	32.6	36.8	42.3
COc1ccc(N)cc1S(=O)(=O)N(C)CCO [compound 328]	–	–	0,46	–	0	0	0	20.7
COc1cc(N)c(Cl)cc1S(=O)(=O)N(C)CCO [compound 330]	0,96	–	–	–	41.9	0	0	–
COc1ccc(Cl)cc1S(=O)(=O)NCCO [Composé n° 276]	–	0,25	–	0,48	0	4.4	24.8	–
COc1cc([N+](=O)[O-])c(Cl)cc1S(=O)(=O)NCCO [compound 281, chloro-5 N-(hydroxy-2 éthyl) méthoxy-2 nitro-4 benzènesulfonamide]	0,13	0,75	0,25	–	4.9	13.3	0	11.3
COc1ccc(Cl)cc1S(=O)(=O)N(C)CCO [compound 324]	0,52	2,85	0,58	–	22.6	26.2	19.4	25.9
CCC(CO)NS(=O)(=O)c1ccc([N+](=O)[O-])cc1OC (stereo not drawn) [compound 312]	–	–	1,79	–	54.1	55.1	0	45.4
COc1ccc([N+](=O)[O-])cc1S(=O)(=O)N(C)CCO [compound 327]	–	–	0,53	–	0	0	9	23.6
COc1cc(N)c(Cl)cc1S(=O)(=O)NCC(C)O (stereo not drawn) [Composé n° 323]	1,44	4,26	1,23	–	62.9	39.2	53	55.2
CCC(CO)NS(=O)(=O)c1cc([N+](=O)[O-])ccc1OC (stereo not drawn) [compound 314]	–	–	1,02	0,04	44	42.1	1.2	25.9
COc1cc([N+](=O)[O-])c(Cl)cc1S(=O)(=O)NCC(C)O (stereo not drawn) [compound 322, chloro-5 N-(hydroxy-2 propyl) méthoxy-2 nitro-4 benzènesulfonamide]	0,27	0,83	3,15	1,02	13.1	7.9	73.4	43.5
COc1cc(N)ccc1S(=O)(=O)N(C)CCO [compound 326]	0,67	0,41	0,71	–	29	3.8	20.3	31.9
COc1ccc([N+](=O)[O-])cc1S(=O)(=O)NCCO [compound 279]	–	–	–	0,20	0	0	10.2	–
COc1cc(N)ccc1S(=O)(=O)NCCO [compound 278]	0,65	–	–	–	22	0	4.5	–
CCC(CO)NS(=O)(=O)c1ccc(N)cc1OC (stereo not drawn) [compound 313]	–	–	0,77	–	39.4	39.3	0	19.4
COc1ccc([N+](=O)[O-])cc1S(=O)(=O)NCC(C)O (stereo not drawn) [compound 321]	0,95	1,44	2,84	1,05	46.7	13.7	76	39.2
CCC(CO)NS(=O)(=O)c1cc(Cl)c(N)cc1OC (stereo not drawn) [compound 317]	0,52	0,17	3,11	–	25.4	1.6	0	42.9
COc1ccc(Cl)cc1S(=O)(=O)NCC(C)O (stereo not drawn) [Composé n° 318]	0,65	1,55	0,77	–	32	14.7	0	10.7
COc1cc(N)ccc1S(=O)(=O)NCC(C)O (stereo not drawn) [compound 320]	0,34	1,61	1,48	0,91	16.7	15.3	66.1	20.5
COc1cc([N+](=O)[O-])c(Cl)cc1S(=O)(=O)N(C)CCO [compound 329]	–	–	0,84	–	0	0	40	37.6
COc1ccc(N)cc1S(=O)(=O)NCCO [compound 280]	0,08	0,11	–	–	2.9	1.9	0	–
COc1cc(N)c(Cl)cc1S(=O)(=O)NCCO [compound 282]	0,46	0,75	0,26	0,42	15.5	13.3	21.6	12
CCC(CO)NS(=O)(=O)c1cc(Cl)ccc1OC (stereo not drawn) [Composé n° 311]	–	–	0,69	–	0	0	0	17.6
COc1cc([N+](=O)[O-])ccc1S(=O)(=O)NCCO [compound 277]	0,08	0,18	–	0,38	2.9	3.2	19.7	0
